Source: the supplement of paper PMC10307832

Assays:
Experiment in all cases: relative viability (nuclei count vs DMSO), 5 days (fraction); higher = more cells survive
[1] = compound: C1=CC(=CC=C1C2=CC(=C(S2)NC(=O)N)C(=O)N)F [TPCA-1] + Cc1cc(Nc2cc(N3CCN(C)CC3)nc(Sc3ccc(NC(=O)C4CC4)cc3)n2)n[nH]1 [Tozasertib] (partner 0.1 µM)
Procedure, shortened: (§1)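 Nuclei were stained with Hoechst during a one-step fixation (final 0.05% Triton X-100, 1% formaldehyde, 1 ug/ml Hoechst) carried out 5 days after dosing, then counted on 4× images. The cells, lung cancer lines in 1536-well plates, had been dosed by pin tool the day after seeding with one drug alone or a fixed anchor-drug dose plus five library-drug doses (not always all listed) in √10 steps. Relative viability is the nuclei count in treated wells divided by that in vehicle wells, and each value is the median of duplicate plates.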

[2] = compound: C1=CC(=CC=C1C2=CC(=C(S2)NC(=O)N)C(=O)N)F [TPCA-1] + CC(C)C[C@H](NC(=O)[C@H](Cc1ccccc1)NC(=O)c1cnccn1)B(O)O [Bortezomib] (partner 0.002 µM)
Procedure, shortened: as §1

[3] = compound: C[C@]12O[C@H](C[C@]1(O)CO)n1c3ccccc3c3c4c(c5c6ccccc6n2c5c31)CNC4=O [Lestaurtinib] + CC1(C)CCC(c2ccc(Cl)cc2)=C(CN2CCN(c3ccc(C(=O)NS(=O)(=O)c4ccc(N[C@H](CCN5CCOCC5)CSc5ccccc5)c(S(=O)(=O)C(F)(F)F)c4)cc3)CC2)C1 [Navitoclax] (partner 0.5 µM)
Procedure, shortened: as §1

[4] = compound: C[C@]12O[C@H](C[C@]1(O)CO)n1c3ccccc3c3c4c(c5c6ccccc6n2c5c31)CNC4=O [Lestaurtinib] + Nc1nc2[nH]cc(CCc3ccc(C(=O)N[C@@H](CCC(=O)O)C(=O)O)cc3)c2c(=O)[nH]1 [Pemetrexed] (partner 0.2 µM)
Procedure, shortened: as §1

Cell Line	relative viability ([1]; first compound 0.04 µM)	relative viability ([1]; first compound 0.1265 µM)	relative viability ([1]; first compound 0.4 µM)	relative viability ([1]; first compound 1.265 µM)	relative viability ([1]; first compound 4 µM)	relative viability ([2]; first compound 0.04 µM)	relative viability ([2]; first compound 0.1265 µM)	relative viability ([2]; first compound 0.4 µM)	relative viability ([2]; first compound 1.265 µM)	relative viability ([2]; first compound 4 µM)	relative viability ([3]; first compound 0.005 µM)	relative viability ([3]; first compound 0.01581 µM)	relative viability ([3]; first compound 0.05 µM)	relative viability ([3]; first compound 0.1581 µM)	relative viability ([3]; first compound 0.5 µM)	relative viability ([4]; first compound 0.005 µM)	relative viability ([4]; first compound 0.01581 µM)	relative viability ([4]; first compound 0.1581 µM)	relative viability ([4]; first compound 0.5 µM)	relative viability ([4]; first compound 0.05 µM)
ABC-1	0.153	0.199	0.137	0.163	0.142	0.369	0.225	0.291	0.297	0.293	–	–	–	–	–	–	–	–	–	–
IA-LM	–	–	–	–	–	0.834	0.804	0.847	0.781	0.559	0.887	0.994	0.817	0.85	0.236	–	–	–	–	–
NCI-H322M	0.523	0.464	0.462	0.416	0.303	1.18	1.17	1.36	1.24	1.27	1.28	0.977	0.563	0.463	0.461	0.599	0.606	0.592	0.445	–
NCI-H1792	–	–	–	–	–	0.97	0.924	0.84	0.964	0.559	0.322	0.86	0.428	0.23	0.166	0.748	1.15	0.371	0.31	0.257
LXF-289	0.248	0.203	0.201	0.169	0.122	1.03	0.941	0.987	1.01	0.781	0.93	0.986	0.742	0.707	0.161	0.872	0.931	0.771	0.21	0.631
HCC-827	0.472	0.42	0.389	0.443	0.272	1.06	1.06	1.09	0.964	0.89	1.07	1.01	0.98	0.847	0.604	0.234	0.234	0.28	0.196	0.26
SW 900	0.612	0.556	0.56	0.485	0.245	–	–	–	–	–	–	–	–	–	–	0.517	0.538	0.532	0.441	0.487
SK-MES-1	0.866	0.82	0.933	0.728	0.24	–	–	–	–	–	1.35	1.25	0.59	0.354	0.343	0.982	0.918	0.413	0.26	0.506
NCI-H1299	–	–	–	–	–	1.02	0.961	1.01	0.981	1.07	1.02	1.06	0.946	0.845	0.489	–	–	–	–	–
NCI-H1563	–	–	–	–	–	0.924	0.875	0.836	0.741	0.793	–	–	–	–	–	0.71	0.855	0.797	0.723	0.613
NCI-H661	0.376	0.349	0.366	0.345	0.339	0.651	0.662	0.986	0.753	0.501	–	–	–	–	–	0.972	1.03	0.702	0.523	0.836
NCI-H1944	0.239	0.252	0.239	0.247	0.208	–	–	–	–	–	1.12	1.01	0.956	0.673	0.638	0.663	0.595	0.409	0.25	0.492
LK-2	0.167	0.176	0.187	0.172	0.16	–	–	–	–	–	1.01	0.838	0.673	0.374	0.169	0.302	0.444	0.302	0.139	0.255
NCI-H727	0.558	0.719	0.693	0.661	0.492	1.07	0.707	0.923	0.674	0.696	0.502	0.478	0.489	0.332	0.185	–	–	–	–	–
Calu-6	–	–	–	–	–	1.1	0.933	1.09	0.873	0.658	1.01	0.797	0.506	0.468	0.106	–	–	–	–	–
NCI-H1395	0.906	0.69	0.766	0.657	0.61	–	–	–	–	–	1.38	1.28	1.06	0.912	0.413	0.788	1.03	0.775	0.379	0.559
NCI-H650	0.707	0.708	0.734	0.546	0.256	0.877	0.898	0.923	0.326	0.554	–	–	–	–	–	0.938	1.01	0.573	0.33	0.557
NCI-H1703	–	–	–	–	–	0.299	0.385	0.394	0.41	0.367	1.22	1.09	0.424	0.219	0.11	–	–	–	–	–
EBC-1	–	–	–	–	–	0.521	0.617	0.618	0.59	0.479	0.381	0.51	0.343	0.328	0.193	–	–	–	–	–
NCI-H2342	0.437	0.438	0.499	0.617	0.391	–	–	–	–	–	–	–	–	–	–	0.74	0.773	0.858	0.6	0.796
NCI-H1648	0.548	0.355	0.486	0.573	0.379	–	–	–	–	–	–	–	–	–	–	–	0.806	1	0.606	–
NCI-H522	0.562	0.589	0.586	0.578	0.553	–	–	–	–	–	–	–	–	–	–	1.01	1.08	0.784	0.502	1.01
A549	–	–	–	–	–	–	–	–	–	–	1.28	1.27	0.948	0.615	0.0764	–	–	–	–	–
LCLC-103H	0.488	0.405	0.515	0.513	0.321	1.07	1.05	1.1	0.987	1.02	–	–	–	–	–	0.418	0.484	0.472	0.412	0.469
